Like-named read-outs stand apart in the source and are kept apart here. Bounds are passed on as bounds.

One experiment has as its target Y641N EZH2 (Homo sapiens, UniProt Q15910, Y641N). As to the kind of experiment: Y641N EZH2 assay: as EZH2 assay, with reconstituted H3K27Me2 oligonucleosomes as substrate. Type of experiment: biochemical.
In experiment [1] the test system is H3K27me3 mark in HeLa cells. As to the kind of experiment: H3K27me3 Alpha Hela Assay (AlphaLISA). Type of experiment: cell-based. Conditions: 72 hrs; for EC50: Homo sapiens, read-out: H3K27me3_Alpha_HeLa_ (EC50). Here is the method: H3K27me3 Alpha Hela Assay (AlphaLISA).
Ten different doses of each test compound (in a series of 3-fold dilutions) were plated in duplicate 384-well tissue culture treated plates (Catalog #781080; Greiner Bio One; Monroe, N.C.). Hela cells grown in culture were trypsinized and counted using a Countess® cell counter (Catalog #C10281; Life Technologies, Grand Island, N.Y.). Cell were diluted to 67,000 cells per mL in 10% DMEM (Catalog #10569-010 Life Technologies. Grand Island, N.Y.) and 15 μL (1,000 cells) were plated into each well using the Biotek MicroFlo™ Select Dispenser (BioTek Instruments. Inc. Vermont, USA),) of the 384-well plate. Plates were incubated at 37° C./5% CO2 for 72 hrs. One of the duplicate plates was processed for HeLa assay and the other for viability.
To the plate processed for AlphaLISA was added 5 μL per well Cell-Histone Lysis buffer (1×) (Catalog #AL009F1 Perkin Elmer; Waltham, Mass.) and the plate was incubated at RT for 30 minutes on a plate shaker with low speed (Model#4625-Q Thermo Scientific; Waltham, Mass.). Then, 10 µL per well Histone Extraction buffer (catalog #AL009F2: Perkin Elmer; Waltham, Mass.) was added and the plate further incubated at RT for 20 min on plate shaker with low speed. To each well was then added 10 μL per well of a 5× mix of anti-K27me3 acceptor beads plus Biotinylated anti-Histone H3 (C-ter) Antibody (diluted to 3 nM final) (Catalog #AL118 Perkin Elmer; Waltham, Mass.). Dilution of the acceptor beads and then anti-Histone H3 was with 1× Histone Detection buffer (Catalog #AL009F3 Perkin Elmer; Waltham, Mass.) which was produced diluted from the 10× stock provided. The plate was sealed with an aluminum plate sealer and incubated at 23° C. for 60 min. We then added 10 μL 5× solution of Streptavidin Donor beads (Catalog #6760002 Perkin Elmer; Waltham, Mass.) (20 μg/mL final in 1× Histone Detection Buffer), sealed the plate with Aluminum plate sealer and incubated at 23° C. for 30 min. The plates were then read using an EnVision-Alpha Reader (model #2104 Perkin Elmer: Waltham, Mass.).
Data from both assays was analyzed using Assay Assistant (Constellation Pharmaceuticals In-house product) and Activity Base (IDBS Ltd. Surrey, UK) template. Data files were imported to Assay Assistant and assay conditions were specified. A unique Analysis ID was created and the data files exported to Activity Base. An analysis template was created on Activity Base to measure dose-dependent inhibition of H3K27me3 mark and cell viability respectively. Readout of DMSO wells were used to normalize the data. Resulting curves were fitted using Activity base software Model 205 (IDBS Ltd, Surrey, UK). The data was checked for quality, validated and integrated in excel format using SARview (IDBS Ltd, Surrey, UK).

The target in another experiment is EZH2 (rPRC2) (Homo sapiens, UniProt Q15910). As to the kind of experiment: EZH2 assay: rPRC2, biotinylated oligonucleosomes, 3H SAM methyl transfer (FlashPlate scintillation). The class given is biochemical. Conditions: biotinylated oligonucleosome substrate.
Setting [2] is: Y641N EZH2 IC50, Y641N mutant EZH2, H3K27Me2 oligonucleosome substrate.
Setting [3] is: EZH2 IC50, wild-type EZH2 (rPRC2).

Sequence of Y641N EZH2 (Q15910 whole entry Y641N): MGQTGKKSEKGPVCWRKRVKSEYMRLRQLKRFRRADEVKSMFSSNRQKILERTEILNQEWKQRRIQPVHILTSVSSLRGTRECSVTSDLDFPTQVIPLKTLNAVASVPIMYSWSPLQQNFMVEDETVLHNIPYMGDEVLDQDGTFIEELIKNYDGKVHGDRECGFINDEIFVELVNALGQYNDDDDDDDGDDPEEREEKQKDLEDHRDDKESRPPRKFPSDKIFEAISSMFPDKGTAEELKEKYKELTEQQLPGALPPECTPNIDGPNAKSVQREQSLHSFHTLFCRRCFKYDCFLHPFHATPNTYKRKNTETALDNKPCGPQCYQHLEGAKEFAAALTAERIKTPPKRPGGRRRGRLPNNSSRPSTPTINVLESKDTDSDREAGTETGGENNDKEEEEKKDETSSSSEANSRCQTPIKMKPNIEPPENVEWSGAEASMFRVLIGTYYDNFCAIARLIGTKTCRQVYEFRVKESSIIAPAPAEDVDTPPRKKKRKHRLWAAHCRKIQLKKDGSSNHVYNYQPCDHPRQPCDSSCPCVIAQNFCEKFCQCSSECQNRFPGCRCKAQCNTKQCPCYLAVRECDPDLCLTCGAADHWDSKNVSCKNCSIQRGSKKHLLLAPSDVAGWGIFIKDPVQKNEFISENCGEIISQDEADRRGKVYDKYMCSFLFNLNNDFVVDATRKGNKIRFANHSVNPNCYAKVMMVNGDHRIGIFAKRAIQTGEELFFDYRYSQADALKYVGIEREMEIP
Sequence of Y641N EZH2 (O75530 whole entry partner): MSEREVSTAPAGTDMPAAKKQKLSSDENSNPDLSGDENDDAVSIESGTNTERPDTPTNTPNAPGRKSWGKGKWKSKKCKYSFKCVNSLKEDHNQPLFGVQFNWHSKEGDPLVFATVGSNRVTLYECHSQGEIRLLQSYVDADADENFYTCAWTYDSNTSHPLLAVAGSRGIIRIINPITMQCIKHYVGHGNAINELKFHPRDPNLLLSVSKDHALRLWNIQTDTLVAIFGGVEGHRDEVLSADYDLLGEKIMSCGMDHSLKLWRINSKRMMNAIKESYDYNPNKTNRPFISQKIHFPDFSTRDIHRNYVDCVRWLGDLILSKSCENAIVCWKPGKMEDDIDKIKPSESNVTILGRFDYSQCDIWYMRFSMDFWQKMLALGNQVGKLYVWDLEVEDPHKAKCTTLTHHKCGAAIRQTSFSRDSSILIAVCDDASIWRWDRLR
Sequence of Y641N EZH2 (Q15022 whole entry partner): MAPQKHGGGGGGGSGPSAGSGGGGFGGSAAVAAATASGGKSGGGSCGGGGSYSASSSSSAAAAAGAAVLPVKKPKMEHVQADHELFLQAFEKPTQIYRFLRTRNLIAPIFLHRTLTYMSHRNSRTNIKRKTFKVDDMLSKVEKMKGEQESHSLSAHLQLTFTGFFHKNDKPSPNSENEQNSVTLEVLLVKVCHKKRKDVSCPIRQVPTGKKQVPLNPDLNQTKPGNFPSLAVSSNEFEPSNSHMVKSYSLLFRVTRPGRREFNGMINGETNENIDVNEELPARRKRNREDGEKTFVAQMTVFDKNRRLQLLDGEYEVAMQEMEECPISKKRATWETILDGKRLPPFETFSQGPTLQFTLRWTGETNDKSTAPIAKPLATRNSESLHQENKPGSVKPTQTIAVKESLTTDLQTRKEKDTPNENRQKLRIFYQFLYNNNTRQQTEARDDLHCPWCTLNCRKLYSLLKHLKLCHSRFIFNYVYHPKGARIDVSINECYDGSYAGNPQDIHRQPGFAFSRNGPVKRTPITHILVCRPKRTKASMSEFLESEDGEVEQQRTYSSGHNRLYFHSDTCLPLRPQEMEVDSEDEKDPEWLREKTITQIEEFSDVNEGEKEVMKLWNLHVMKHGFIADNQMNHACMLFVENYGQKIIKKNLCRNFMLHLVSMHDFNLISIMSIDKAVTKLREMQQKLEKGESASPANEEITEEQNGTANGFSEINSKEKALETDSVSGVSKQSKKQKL
Sequence of EZH2 (rPRC2) (Q15910 whole entry): as the sequence (Q15910 whole entry Y641N) above, with N641Y counted along it
Sequence of EZH2 (rPRC2) (O75530 whole entry partner): as the sequence (O75530 whole entry partner) above
Sequence of EZH2 (rPRC2) (Q15022 whole entry partner): as the sequence (Q15022 whole entry partner) above

In the case of `COc1cc(C)[nH]c(=O)c1CNC(=O)c1c(C)n(C(C)c2ccnc(N3CCNCC3)c2)c2ccccc12` (racemic) [Compound 353, (±)-N-((4-methoxy-6-methyl-2-oxo-1,2-dihydropyridin-3-yl)methyl)-2-methyl-1-(1-(2-(piperazin-1-yl)pyridine-4-yl)ethyl)-1H-indole-3-carboxamide], the half-maximal inhibitory concentration (IC50) on Y641N EZH2 (setting [2]) and against EZH2 (rPRC2) (setting [3]) was less than 100 nM throughout. For the same compound, the “H3K27me3_Alpha_HeLa_ (EC50)” value in experiment [1] is “*(3.33 μM)”.

`COc1cc(C)[nH]c(=O)c1CNC(=O)c1c(C)n(C(C)C2CN(S(C)(=O)=O)C2)c2ccccc12` (racemic) [Compound 354, (±)-N-((4-methoxy-6-methyl-2-oxo-1,2-dihydropyridin-3-yl)methyl)-2-methyl-1-(1-(1-(methylsulfonyl)azetidin-3-yl)ethyl)-1H-indole-3-carboxamide]: the IC50 against Y641N EZH2 (setting [2]) and against EZH2 (rPRC2) (setting [3]) was less than 100 nM each time. In addition, in experiment [1], the half-maximal effective concentration (EC50) is 400 to 2000 nM.

With `Cc1cc(C)c(CNC(=O)c2c(C)n(C(C)C3CC3)c3ncccc23)c(=O)[nH]1` (single isomer, unassigned) [Compound 253, (R or S)-(±)-1-(1-cyclopropylethyl)-N-((4,6-dimethyl-2-oxo-1,2-dihydropyridin-3-yl)methyl)-2-methyl-1H-pyrrolo[2,3-b]pyridine-3-carboxamide], the IC50 on Y641N EZH2 (read-out: Y641N EZH2 IC50, Y641N mutant EZH2, H3K27Me2 oligonucleosome substrate) was 100 to 1000 nM; at EZH2 (rPRC2) (read-out: EZH2 IC50, wild-type EZH2 (rPRC2)) it was less than 100 nM. Also, the concentration for a half-maximal effect (EC50) in experiment [1] was less than 400 nM.

For `COc1cc(C)[nH]c(=O)c1CNC(=O)c1c(C)n(C(C)C2CCOCC2)c2cc(Cl)ccc12` (single isomer, unassigned) [Compound 314, (R or S)-6-chloro-N-((4-methoxy-6-methyl-2-oxo-1,2-dihydropridin-3-1)methyl)-2-methyl-1-(1-(tetrahydro-2H-pyran-4-yl)ethyl)-1H-indole-3-carboxamide], the IC50 on Y641N EZH2 (setting [2]) and against EZH2 (rPRC2) (setting [3]) was less than 100 nM throughout. Further, the concentration giving a half-maximal response (EC50) in experiment [1] was less than 400 nM.

With `Cc1cc(OC(F)F)c(CNC(=O)c2c(C)n(C(C)C3CCOCC3)c3ccccc23)c(=O)[nH]1` (single isomer, unassigned) [Compound 335, (R or S)-N-((4-(difluoromethoxy)-6-methyl-2-oxo-1,2-dihydropyridin-3-yl)methyl)-2-methyl-1-(1-(tetrahydro-2 H-pyran-4-yl)ethyl)-1 H-indole-3-carboxamide], the IC50 at Y641N EZH2 (setting [2]) and against EZH2 (rPRC2) (setting [3]) was less than 100 nM in each case. The 50% effective concentration (EC50) in experiment [1] was less than 400 nM.

As to `COc1cc(C)[nH]c(=O)c1CNC(=O)c1c(C)n(C(C)C2CCN(C)CC2)c2ccccc12` (single isomer, unassigned) [Compound 343, (R or S)-N-((4-methoxy-6-methyl-2-oxo-1,2-dihydropyridin-3-yl)methyl)-2-methyl-1-(1-(1-methylpiperidin-4-yl)ethyl)-1H-indole-3-carboxamide], the IC50 against Y641N EZH2 (setting [2]) and on EZH2 (rPRC2) (setting [3]) was less than 100 nM throughout. Also, the EC50 in experiment [1] lay within 400 to 2000 nM.

With `CCS(=O)(=O)C1(C(C)n2c(C)c(C(=O)NCc3c(OC)cc(C)[nH]c3=O)c3ccccc32)CCNCC1` (single isomer, unassigned) [Compound 345, (R or S)-1-(1-(4-(ethylsulfonyl)piperidin-4-yl)ethyl)-N-((4-methoxy-6-methyl-2-oxo-1,2-dihydropyridin-3-yl)methyl)-2-methyl-1 H-indole-3-carboxamide], the half-maximal inhibitory concentration (IC50) against Y641N EZH2 (setting [2]) and against EZH2 (rPRC2) (setting [3]) was less than 100 nM each time. In experiment [1], the concentration giving a half-maximal response (EC50) is less than 400 nM.

Take `COc1cc(C)[nH]c(=O)c1CNC(=O)c1c(C)n(C(C)C2CCN(C(=O)OC(C)C)CC2)c2ccccc12` (single isomer, unassigned) [Compound 346, (R or S)-isopropyl 4-(1-(3-((4-methoxy-6-methyl-2-oxo-1,2-dihydropyridin-3-yl)methylcarbamoyl)-2-methyl-1H-indol-1-yl)ethyl)piperidine-1-carboxylate]: the 50% inhibitory concentration (IC50) against Y641N EZH2 (setting [2]) and against EZH2 (rPRC2) (setting [3]) was less than 100 nM in each case. For the same compound, the 50% effective concentration (EC50) in experiment [1] was less than 400 nM.

On to `COc1cc(C)[nH]c(=O)c1CNC(=O)c1c(C)n(C(C)C2CCN(CCO)CC2)c2ccccc12` (single isomer, unassigned) [Compound 347, (R or S)-1-(1-(1-(2-hydroxyethyl)piperidin-4-yl)ethyl)-N-((4-methoxy-6-methyl-2-oxo-1,2-dihydropyridin-3-yl)methyl)-2-methyl-1H-indole-3-carboxamide], for which the concentration for half-maximal inhibition (IC50) against Y641N EZH2 (setting [2]) and against EZH2 (rPRC2) (setting [3]) was less than 100 nM throughout. Also, the EC50 in experiment [1] fell in the range of 400 to 2000 nM.

Take `COc1cc(C)[nH]c(=O)c1CNC(=O)c1c(C)n(C(C)C2CCN(CC(C)(C)O)CC2)c2ccccc12` (single isomer, unassigned) [Compound 352, (R or S)-1-(1-(1-(2-hydroxy-2-methylpropyl)piperidin-4-yl)ethyl)-N-((4-methoxy-6-methyl-2-oxo-1,2-dihydropyridin-3-yl)methyl)-2-methyl-1H-indole-3-carboxamide]: the IC50 at Y641N EZH2 (setting [2]) and on EZH2 (rPRC2) (setting [3]) was less than 100 nM throughout. Besides, the EC50 in experiment [1] fell in the range of 400 to 2000 nM.

For the compound `COc1cc(C)[nH]c(=O)c1CNC(=O)c1c(C)n(C(C)C2CCC(S(=O)(=O)C(C)C)CC2)c2ccccc12` (single isomer, unassigned) [Compound 355, (R or S)-1-(1-(4-(isopropylsulfonyl)cyclohexyl)ethyl)-N-((4-methoxy-6-methyl-2-oxo-1,2-dihydropyridin-3-yl)methyl)-2-methyl-1 H-indole-3-carboxamide], the 50% inhibitory concentration (IC50) on Y641N EZH2 (setting [2]) and at EZH2 (rPRC2) (setting [3]) was less than 100 nM throughout. For the same compound, the EC50 in experiment [1] is less than 400 nM.

For the compound `COc1cc(C)[nH]c(=O)c1CNC(=O)c1c(C)n(C(C)C2CCN(CCF)CC2)c2ccccc12` (single isomer, unassigned) [Compound 356, (R or S)-1-(1-(1-(2-fluoroethyl)piperidin-4-yl)ethyl)-N-((4-methoxy-6-methyl-2-oxo-1,2-dihydropyridin-3-yl)methyl-2-methyl-1H-indole-3-carboxamide], the IC50 at Y641N EZH2 (setting [2]) and at EZH2 (rPRC2) (setting [3]) was less than 100 nM in each case. Besides, the EC50 in experiment [1] was less than 400 nM.

For the compound `COc1cc(C)[nH]c(=O)c1CNC(=O)c1c(C)n(C(C)C2CCN(C(=O)OCC(C)C)CC2)c2ccccc12` (single isomer, unassigned) [Compound 357, (R or S)-isobutyl 4-(1-(3-(((4-methoxy-6-methyl-2-oxo-1,2-dihydropyridin-3-yl)methyl)carbamoyl)-2-methyl-1 H-indol-1-yl)ethyl)piperidine-1-carboxylate], the IC50 against Y641N EZH2 (setting [2]) and on EZH2 (rPRC2) (setting [3]) was less than 100 nM in each case. In experiment [1], the 50% effective concentration (EC50) was less than 400 nM.

For the compound `COc1cc(C)[nH]c(=O)c1CNC(=O)c1c(C)n(C(C)C2CCN(C(C)C)CC2)c2ccccc12` (single isomer, unassigned) [Compound 358, (R or S)-1-(1-(1-isopropylpiperidin-4-yl)ethyl)-N-((4-methoxy-6-methyl-2-oxo-1,2-dihydropyridin-3-yl)methyl)-2-methyl-1H-indole-3-carboxamide], the concentration for half-maximal inhibition (IC50) at Y641N EZH2 (setting [2]) and at EZH2 (rPRC2) (setting [3]) was less than 100 nM in each case. The concentration giving a half-maximal response (EC50) in experiment [1] was in the range of 400 to 2000 nM.

Turning to `CCN1CCC(C(C)n2c(C)c(C(=O)NCc3c(OC)cc(C)[nH]c3=O)c3ccccc32)CC1` (single isomer, unassigned) [Compound 360, (R or S)-1-(1-(1-ethylpiperidin-4-yl)ethyl)-N-((4-methoxy-6-methyl-2-oxo-1,2-dihydropyridin-3-yl)methyl)-2-methyl-1 H-indole-3carboxamide], the IC50 at Y641N EZH2 (setting [2]) and at EZH2 (rPRC2) (setting [3]) was less than 100 nM in each case. Besides, the 50% effective concentration (EC50) in experiment [1] fell in the range of 2000 to 10000 nM.

Values taken from patent publication US9371331B2, “Modulators of methyl modifying enzymes, compositions and uses thereof” (Constellation Pharmaceuticals, Inc., priority 2012, dated 2016).
